Assay results: patent US10040838B2, “CRHR2 peptide agonists and uses thereof” (JANSSEN PHARMACEUTICA NV, priority 2008, dated 2018)
Residues, ends and D or L forms follow the SMILES beside them. *: point of attachment. Succinimide(1-Et,3-yl) = CCN1C(=O)CC(*)C1=O

Molecular target: T1, human CRHR2 (Homo sapiens, UniProt Q13324)
T1 construct: expressed in transfected cells
T1 sequence (Q13324 1-411): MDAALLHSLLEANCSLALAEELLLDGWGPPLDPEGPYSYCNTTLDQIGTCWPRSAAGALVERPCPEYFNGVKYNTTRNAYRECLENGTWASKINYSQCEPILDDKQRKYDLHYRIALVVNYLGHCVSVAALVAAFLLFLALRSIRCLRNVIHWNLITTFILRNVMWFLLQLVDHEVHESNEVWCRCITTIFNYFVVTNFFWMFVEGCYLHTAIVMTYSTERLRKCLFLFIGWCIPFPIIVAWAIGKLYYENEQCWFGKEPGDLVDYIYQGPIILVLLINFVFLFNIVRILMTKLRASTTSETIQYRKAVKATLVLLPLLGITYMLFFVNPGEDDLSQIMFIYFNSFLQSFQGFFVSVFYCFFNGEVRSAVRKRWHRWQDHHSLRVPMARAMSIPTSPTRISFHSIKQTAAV
Assay: cAMP assay in h-CRHR2 transfected SK-N-MC cells
Format: cell-based
Conditions: Table 13; h-SCP control pA50 minus test compound pA50 within same assay batch
Experimental: The concentration required for 50% maximum effect (A50) was 0.4 nM.
Human CRHR1 (accession number X72304) or CRHR2 (accession number U34587) were cloned into pcDNA3.1/Zeo expression vector and stably transfected into SK-N-MC cells by electroporation. Cells were maintained in MEM w/Earl's Salt with 10% FBS, 50 I.U. penicillin, 50 μg/ml streptomycin, 2 mM L-glutamine, 1 mM sodium pyruvate and 0.1 mM nonessential amino acids, 600 μg/ml G418. Cells were grown at 37° C. in 5% CO2.
Cells were plated in 96-well tissue culture dishes (Biocoat from BD Biosciences) overnight at 50,000 cell/well. Cells were washed with PBS then resuspended in DMEM F-12 without phenol red, containing 10 μM isobutylmethylxanthine (IBMX). Cells were incubated with the peptides at concentrations ranging from 1 pM to 10 μM for 60 min at 37° Celsius. […] Forskolin (10 μM), a direct stimulant of adenylate cyclase, was used as positive control. The assays were stopped by the addition of 0.5 M HCl and mixing by orbital rotation for 2 h at 4° Celsius.
To assess the activity of the inventive peptide at the CRHR2, an intracellular cAMP measurement test using a Flash plate radioactive assay (Catalog No. Cus56088; Perkin Elmer, MA, U.S.A.) was employed.
Transfected SK-N-MC cells were plated in 96-well Biocoat tissue culture dishes (BD Biosciences, San Jose, Calif., U.S.A) overnight at 50,000 cell/well. Cells were first washed with PBS and then suspended with DMEM/F-12 without phenol red, containing […]. Suspended cells were transferred into a 96-well flash plate coated with scintillant fluid. Cells were incubated with peptides ranging from […], for 60 min, at 37° Celsius. Forskolin at 10 μM was used as positive control. After ligand stimulation, cells were lysed by the addition of 0.5M HCl and mixed by orbital rotation for 2 h at 4° Celsius in order to release intracellular cAMP into the media.
Media containing released intracellular cAMP was transferred to a 96-well flash plate coated with scintillant fluid containing an anti-cAMP antibody. In this assay, intracellular cAMP competes with ^125I-labeled cAMP binding to the antibody. To generate a standard curve, cAMP ranging from 2.5 to 250 pmoles/ml was included in the experiment. [^125I]-cAMP was measured on a TopCount scintillation counter (Perkin Elmer, MA, U.S.A).
Individual agonist concentration-response curve data were fitted to the Hill equation, see formula below, using GraphPad Prism (Graphpad Software, La Jolla, Calif., U.S.A.), to provide estimates of agonist concentration needed to generate one-half maximal response (A50), and the maximal asymptote (α) and Hill slope (nH) parameters. In this equation, [A] is the agonist concentration and E is the measured effect:
For display purposes the mean fitted parameter estimates were used to generate a single E/[A] curve shown superimposed on the mean experimental data. Potency estimates for agonists, pA50, are expressed as the negative logarithm of the midpoint of each curve and listed with their standard error of measurement (SEM). Logarithm base 10 of the agonist dose ratio (Log DR) values were calculated by subtraction of the test compound pA50 value from the corresponding h-SCP (SEQ ID NO:1) control pA50 value within the same assay batch. The SEM values of the Log DR values are given by the square root of the sum of the squared SEM values of the h-SCP (SEQ ID NO:1) control and test compound pA50 values.
Human and rat peptides (see Table 10) were used on the stimulation of h-CRHR1 or h-CRHR2 transfected SK-N-MC cells in the cAMP flash plate assay. Peptides were incubated for 1 hr at 37° Celsius. Curves were calculated using non-linear regression sigmoidal concentration-response analysis calculation in GraphPad Prism. The so obtained pA50 values are shown in Table 11 in addition to literature values. […]

Row | Log DR | SMILES
1 | −0.01 | CC[C@H](C)[C@H](NC(=O)[C@H](CCC(N)=O)NC(=O)[C@H](C)NC(=O)[C@H](CCSC)NC(=O)[C@H](CC(C)C)NC(=O)[C@H](Cc1c[nH]cn1)NC(=O)[C@H](C)NC(=O)[C@H](CC(N)=O)NC(=O)[C@H](C)NC(=O)[C@H](C)NC(=O)[C@H](C)NC(=O)[C@H](CCC(N)=O)NC(=O)[C@H](C)NC(=O)[C@H](CCCNC(=N)N)NC(=O)[C@H](CC(C)C)NC(=O)[C@H](CC(N)=O)NC(=O)[C@H](CSC1CC(=O)N(CC)C1=O)NC(=O)[C@H](C)NC(=O)[C@H](CCCCN)NC(=O)[C@H](C)NC(=O)[C@@H](NC(=O)[C@H](CC(N)=O)NC(=O)[C@H](Cc1ccccc1)NC(=O)[C@H](CC(C)C)NC(=O)[C@H](CC(C)C)NC(=O)[C@H](CC(N)=O)NC(=O)[C@H](CCSC)NC(=O)[C@@H](NC(=O)[C@H](CC(N)=O)NC(=O)[C@@H](NC(=O)[C@@H]1CCCN1C(=O)[C@@H](NC(=O)[C@H](CC(=O)O)NC(=O)[C@H](CC(C)C)NC(=O)[C@H](CO)NC(=O)[C@H](CC(C)C)NC(=O)[C@@H](NC(=O)[C@H](Cc1ccccc1)NC(=O)[C@H](CCCCN)NC(=O)[C@@H](N)[C@@H](C)O)[C@@H](C)O)C(C)C)[C@@H](C)O)[C@@H](C)CC)[C@@H](C)CC)C(N)=O (stereo partly shown) [SEQ ID NO: 50, TKFTLSLDVPTNIMNLLFNIAKAC(-NES)N LRAQA AANAH LMAQI-NH2] (H-TKFTLSLDVPTNIMNLLFNIAKAC(Succinimide(1-Et,3-yl))NLRAQAAANAHLMAQI-NH2; N-terminus assumed)
2 | 0.68 | CC[C@H](C)[C@H](NC(=O)[C@H](CCC(N)=O)NC(=O)[C@H](C)NC(=O)[C@H](CCSC)NC(=O)[C@H](CC(C)C)NC(=O)[C@H](Cc1c[nH]cn1)NC(=O)[C@H](C)NC(=O)[C@H](CC(N)=O)NC(=O)[C@H](C)NC(=O)[C@H](C)NC(=O)[C@H](C)NC(=O)[C@H](CCC(N)=O)NC(=O)[C@H](C)NC(=O)[C@H](CCCNC(=N)N)NC(=O)[C@H](CC(C)C)NC(=O)[C@H](CC(N)=O)NC(=O)[C@H](CCCCN)NC(=O)[C@H](C)NC(=O)[C@H](CCCCN)NC(=O)[C@H](C)NC(=O)[C@H](CSC1CC(=O)N(CC)C1=O)NC(=O)[C@H](CC(N)=O)NC(=O)[C@H](Cc1ccccc1)NC(=O)[C@H](CC(C)C)NC(=O)[C@H](CC(C)C)NC(=O)[C@H](CC(N)=O)NC(=O)[C@H](CCSC)NC(=O)[C@@H](NC(=O)[C@H](CC(N)=O)NC(=O)[C@@H](NC(=O)[C@@H]1CCCN1C(=O)[C@@H](NC(=O)[C@H](CC(=O)O)NC(=O)[C@H](CC(C)C)NC(=O)[C@H](CO)NC(=O)[C@H](CC(C)C)NC(=O)[C@@H](NC(=O)[C@H](Cc1ccccc1)NC(=O)[C@H](CCCCN)NC(=O)[C@@H](N)[C@@H](C)O)[C@@H](C)O)C(C)C)[C@@H](C)O)[C@@H](C)CC)C(N)=O (stereo partly shown) [SEQ ID NO: 51, TKFTL SLDVP TNIMN LLFNC(-NES) AKAKN LRAQA AANAH LMAQI-NH2] (H-TKFTLSLDVPTNIMNLLFNC(Succinimide(1-Et,3-yl))AKAKNLRAQAAANAHLMAQI-NH2; N-terminus assumed)
3 | 0.05 | CC[C@H](C)[C@H](NC(=O)[C@H](CCC(N)=O)NC(=O)[C@H](C)NC(=O)[C@H](CCSC)NC(=O)[C@H](CC(C)C)NC(=O)[C@H](Cc1c[nH]cn1)NC(=O)[C@H](C)NC(=O)[C@H](CC(N)=O)NC(=O)[C@H](C)NC(=O)[C@H](C)NC(=O)[C@H](C)NC(=O)[C@H](CCC(N)=O)NC(=O)[C@H](C)NC(=O)[C@H](CCCNC(=N)N)NC(=O)[C@H](CC(C)C)NC(=O)[C@H](CC(N)=O)NC(=O)[C@H](CCCCN)NC(=O)[C@H](C)NC(=O)[C@H](CCCCN)NC(=O)[C@H](C)NC(=O)[C@@H](NC(=O)[C@H](CSC1CC(=O)N(CC)C1=O)NC(=O)[C@H](Cc1ccccc1)NC(=O)[C@H](CC(C)C)NC(=O)[C@H](CC(C)C)NC(=O)[C@H](CC(N)=O)NC(=O)[C@H](CCSC)NC(=O)[C@@H](NC(=O)[C@H](CC(N)=O)NC(=O)[C@@H](NC(=O)[C@@H]1CCCN1C(=O)[C@@H](NC(=O)[C@H](CC(=O)O)NC(=O)[C@H](CC(C)C)NC(=O)[C@H](CO)NC(=O)[C@H](CC(C)C)NC(=O)[C@@H](NC(=O)[C@H](Cc1ccccc1)NC(=O)[C@H](CCCCN)NC(=O)[C@@H](N)[C@@H](C)O)[C@@H](C)O)C(C)C)[C@@H](C)O)[C@@H](C)CC)[C@@H](C)CC)C(N)=O (stereo partly shown) [SEQ ID NO: 52, TKFTL SLDVP TNIMN LLFC(-NES)I AKAKN LRAQA AANAH LMAQI-NH2] (H-TKFTLSLDVPTNIMNLLFC(Succinimide(1-Et,3-yl))IAKAKNLRAQAAANAHLMAQI-NH2; N-terminus assumed)
4 | ~2.22 | CC[C@H](C)[C@H](NC(=O)[C@H](CCC(N)=O)NC(=O)[C@H](C)NC(=O)[C@H](CCSC)NC(=O)[C@H](CC(C)C)NC(=O)[C@H](Cc1c[nH]cn1)NC(=O)[C@H](C)NC(=O)[C@H](CC(N)=O)NC(=O)[C@H](C)NC(=O)[C@H](C)NC(=O)[C@H](C)NC(=O)[C@H](CCC(N)=O)NC(=O)[C@H](C)NC(=O)[C@H](CCCNC(=N)N)NC(=O)[C@H](CC(C)C)NC(=O)[C@H](CC(N)=O)NC(=O)[C@H](CCCCN)NC(=O)[C@H](C)NC(=O)[C@H](CCCCN)NC(=O)[C@H](C)NC(=O)[C@@H](NC(=O)[C@H](CC(N)=O)NC(=O)[C@H](Cc1ccccc1)NC(=O)[C@H](CSC1CC(=O)N(CC)C1=O)NC(=O)[C@H](CC(C)C)NC(=O)[C@H](CC(N)=O)NC(=O)[C@H](CCSC)NC(=O)[C@@H](NC(=O)[C@H](CC(N)=O)NC(=O)[C@@H](NC(=O)[C@@H]1CCCN1C(=O)[C@@H](NC(=O)[C@H](CC(=O)O)NC(=O)[C@H](CC(C)C)NC(=O)[C@H](CO)NC(=O)[C@H](CC(C)C)NC(=O)[C@@H](NC(=O)[C@H](Cc1ccccc1)NC(=O)[C@H](CCCCN)NC(=O)[C@@H](N)[C@@H](C)O)[C@@H](C)O)C(C)C)[C@@H](C)O)[C@@H](C)CC)[C@@H](C)CC)C(N)=O (stereo partly shown) [SEQ ID NO: 53, TKFTL SLDVP TNIMN LC(-NES)FNI AKAKN LRAQA AANAH LMAQI-NH2] (H-TKFTLSLDVPTNIMNLC(Succinimide(1-Et,3-yl))FNIAKAKNLRAQAAANAHLMAQI-NH2; N-terminus assumed)
